# Data published in ChEMBL document CHEMBL1144748, “N-D-aldopentofuranosyl-N'-[p-(isoamyloxy)phenyl]-thiourea derivatives: potential anti-TB therapeutic agents” (2008).
# System: Mycobacterium tuberculosis
# Experiment: Antimycobacterial activity against Mycobacterium tuberculosis H37Rv by microplate alamar blue assay
# Format: functional
row,Structure (SMILES),MIC
1,CC(C)CCOc1ccc(NC(=S)NC2O[C@H](CO)[C@H](O)[C@H]2O)cc1 (stereo not given in full),6.25 µg/mL
2,CC(C)CCOc1ccc(NC(=S)Nc2ccc(OCCC(C)C)cc2)cc1 [TIOCARLIDE],2.5 µg/mL
3,CC(C)CCOc1ccc(NC(=S)NC2O[C@H](CO)[C@@H](O)[C@H]2O)cc1 (stereo not given in full),3.12 µg/mL
4,CC(C)CCOc1ccc(NC(=S)NC2O[C@H](CO)[C@@H](O)[C@@H]2O)cc1 (stereo not given in full),1.56 µg/mL
5,CC(C)CCOc1ccc(NC(=S)NC2O[C@H](CO)[C@H](O)[C@@H]2O)cc1 (stereo not given in full),50 µg/mL
